Measured values published in patent publication US20250212880A1, “COMPOSITION FOR COATING PLANT SEED” (priority 2022, published 2025).

Key:
Assay type in all cases: in vivo
wheat [1] = test: Cultivation of wheat from coated seeds under non-stress conditions; conditions: 2 weeks after seeding, seed coating Trp 0.045-9 g and/or allantoin 50 g per tonne of seeds
Protocol: (§1) Wheat seeds (100 g, the variety: Yumechikara) were coated with 800 μL of a coating solution comprising tryptophan, allantoin, polyvinyl alcohol, and a coloring dye in water using a coater (SATEC). Coating was performed using either or both of tryptophan in an amount of 0 g, 0.045 g, 0.45 g, 4.5 g, or 9 g and allantoin in an amount of 0 g or 50 g per tonne of seeds.
(§2) Culture soil was filled into 12-cm vinyl pots, and the coated wheat seeds were seeded at 4 grains/pot. After germination, a differently grown strain was thinned to retain 3 strains in a pot. Cultivation was performed in a glass greenhouse, and inspection was performed 2 weeks after seeding. The test was repeated 6 times, and the average was determined.
(§3) The measured fresh weight of the aboveground part of plants in groups each treated with different amounts of tryptophan and allantoin was indicated as the rate of change (%), relative to the fresh weight of the aboveground part of plants in the test group (control group) treated with a coating solution not comprising tryptophan or allantoin.

wheat [2] = test: Cultivation of wheat from coated seeds under salt stress conditions; conditions: salt stress (NaCl 4.0 g/L soil), 2 weeks after seeding, seed coating Trp 0.045-9 g and/or allantoin 50 g per tonne of seeds
Protocol: as §1, with “(100 g;” for “(100 g,”
Culture soil comprising sodium chloride at 4.0 g/L of the soil was filled into 7.5-cm pots, and the coated wheat seeds were seeded at 1 grain/pot. Cultivation was performed in a glass greenhouse, and inspection was performed 16 days after seeding. The height and the fresh weight of the aboveground part were measured, and the density (the fresh weight of the aboveground part/the height) was determined. The test was repeated 9 times, and the average was determined.
The density of the test groups treated with different amounts of tryptophan and allantoin was indicated as the rate of change (%), relative to the density of the test group (control group) treated with a coating solution not comprising tryptophan or allantoin.

Zea mays [3] = test: Field test of Zea mays (ear yield); conditions: field cultivation, Belgium; seed coating 0.25 g tryptophan and/or 1000 g allantoin per tonne of seeds
Protocol: In the same manner as in Example 1, Zea mays seeds coated with 0.25 g of tryptophan per tonne of seeds, Zea mays seeds coated with 1000 g of allantoin per tonne of seeds, and Zea mays seeds coated with 0.25 g of tryptophan and 1000 g of allantoin per tonne of seeds were prepared. As a control group, seeds without coating were prepared.
• Location: the Wilderen MAR field, the Kingdom of Belgium • Variety: LIKEiT • Date of seeding: Apr. 27, 2020 • Date of harvesting: Oct. 12, 2020
Cultivation was performed in accordance with the conventional fertilization management technique and pest management technique, and the yield was inspected. • Inspection of yield: 120 strains/group; the number of repetitions: 4

Zea mays [4] = test: Cultivation of Zea mays from coated seeds under non-stress conditions; conditions: dent corn, 3 weeks (21 days) after seeding, seed coating Trp 0.045-0.45 g and/or allantoin 50 or 500 g per tonne of seeds
Protocol: Dent corn seeds (100 g; the variety: Snow-dent “Otoha”) were coated with 800 μL of a coating solution comprising tryptophan, allantoin, polyvinyl alcohol, and a coloring dye in water using a coater (SATEC). Coating was performed using either or both of tryptophan in an amount of 0 g, 0.045 g, 0.225 g, or 0.45 g and allantoin in an amount of 0 g, 50 g, or 500 g per tonne of seeds (MT).
as §2, with “dent corn” for “wheat”, “21 days” for “2 weeks”, “seeding. The height, the fresh weight of the aboveground part, and the dry weight of the underground part were measured, and the density (the fresh weight of the aboveground part/the height) was determined. […]” for “seeding.”
The fresh weight of the aboveground part, the density, and the dry weight of the underground part measured for groups each treated with different amounts of tryptophan and allantoin were indicated as the rates of changes (%), relative to the fresh weight of the aboveground part, the density, and the dry weight of the underground part of plants in the test group (control group) treated with a coating solution not comprising tryptophan or allantoin. […]

soybean [5] = test: Cultivation of soybean from coated seeds under non-stress conditions; conditions: 3 weeks after seeding, seed coating Trp 0.225-5 g and/or allantoin 25 g per tonne of seeds
Protocol: (§4) Soybean seeds (100 g; the variety: Fukuyutaka) were coated with 800 μL of a coating solution comprising tryptophan, allantoin, polyvinyl alcohol, and a coloring dye in water using a coater (SATEC). Coating was performed using either or both of tryptophan in an amount of 0 g, 0.225 g, 0.45 g, or 5 g and allantoin in an amount of 0 g or 25 g per tonne of seeds.
as §2, with “coated soybean” for “coated wheat”, “performed 3” for “performed 2”
as §3

soybean [6] = test: Cultivation of soybean from coated seeds under salt stress conditions; conditions: salt stress (NaCl 1.0 g/L soil), 3 weeks after seeding, seed coating Trp 0.045-5 g and/or allantoin 50 g per tonne of seeds
Protocol: as §4, with “0 g, 0.045 g, 0.225 g,” for “0 g, 0.225 g,”, “g or 50 g per” for “g or 25 g per”
Culture soil comprising sodium chloride at 1.0 g/L of the soil was filled into 7.5-cm pots, and the coated soybean seeds were seeded at 1 grain/pot. Cultivation was performed in a glass greenhouse, and inspection was performed 3 weeks after seeding. The dry weight of the underground part was measured. The test was repeated 9 times, and the average was determined.

SMILES | rate of change in the fresh weight of the aboveground part relative to control group (wheat [1]) | rate of change in the density relative to control group (wheat [2]) | ear yield relative to the control group (100%) (Zea mays [3]) | rate of change in the fresh weight of the aboveground part relative to control group (Zea mays [4]) | rate of change in the fresh weight of the aboveground part relative to control group (soybean [5]) | rate of change in the dry weight of the underground part relative to control group (soybean [6])
NC(=O)NC1NC(=O)NC1=O (stereo not shown) [allantoin, 5-ureidohydantoin] | 1% | 3% | 100.4% | 5% | 4% | 2%
N[C@@H](Cc1c[nH]c2ccccc12)C(=O)O [tryptophan, L-tryptophan] | – | – | 100.4% | – | – | –
